Test results: ChEMBL document CHEMBL1125524, “Adenosine A1 antagonists. 2. Structure-activity relationships on diuretic activities and protective effects against acute renal failure” (J Med Chem, 1992)

Experiments:
Rattus norvegicus [1] = assay: Ratio of urinary excretion value (urinary volume) in treated rats to that in control rats, at a peroral dose of 1.6 mg/Kg; assay type: functional, Urine
Rattus norvegicus [2] = assay: Ratio of sodium ion/potassium ion concentration in treated rats to that in control rats, at a peroral dose of 1.6 mg/Kg; assay type: functional
Rattus norvegicus [3] = species: Rattus norvegicus; assay type: functional, Urine; settings: dose 1.6 mg/kg; route oral
Rattus norvegicus [4] = assay: Serum creatinine concentration measured after intraperitoneal administration of 10 mg/kg of compound to rats(vehicle 2.13+/-0.27); assay type: functional
Adenosine A2 receptor [5] = molecular target: T1, Adenosine A2 receptor (Rattus norvegicus, UniProt P29276+P30543)
Rattus norvegicus [6] = assay: Percent inhibition of serum creatinine by the compound given as ratio of Cr value in treated to vehicle treated ones after intraperitoneal administration of 1 mg/kg of compound to rats(vehicle 3.06+/-0.68); assay type: functional; settings: ip
Rattus norvegicus [7] = assay: Effect on urinary excretion potassium and sodium after oral administration of 25 mg/kg to rats(potassium and sodium excretion in control rat is 0.146+/-0.017); assay type: functional, Urine
Rattus norvegicus [8] = assay: Effect on urinary excretion potassium and sodium after oral administration of 1.6 mg/kg to rats(potassium and sodium excretion in control rat is 0.173+/-0.016); assay type: functional, Urine
Rattus norvegicus [9] = assay: Serum creatinine concentration measured after intraperitoneal administration of 1 mg/kg of compound to rats(vehicle 3.06+/-0.68); assay type: functional
Rattus norvegicus [10] = assay: Ratio of sodium ion/potassium ion concentration in treated rats to that in control rats, at a peroral dose of 25 mg/Kg; assay type: functional
Rattus norvegicus [11] = assay: Ratio of urinary excretion value (Na+ concentration) in treated rats to that in control rats, at a peroral dose of 25 mg/Kg; assay type: functional, Urine
Rattus norvegicus [12] = assay: Ratio of urinary excretion value (urinary volume) in treated rats to that in control rats, at a peroral dose of 25 mg/Kg; assay type: functional, Urine
Rattus norvegicus [13] = assay: Oral diuretic activity was measured after oral administration of 25 mg/kg to rats(control volume is 0.96+/-0.20); assay type: functional, Urine
Rattus norvegicus [14] = assay: Percent inhibition of serum creatinine by the compound given as ratio of Cr value in treated to vehicle treated ones after intraperitoneal administration of 10 mg/kg of compound to rats(vehicle 2.13+/-0.27); assay type: functional; settings: ip
Rattus norvegicus [15] = assay: Urea nitrogen concentration measured after intraperitoneal administration of 1 mg/kg of compound to rats(vehicle 120.9+/-23.3); assay type: functional
Rattus norvegicus [16] = assay: Percent inhibition of Urea nitrogen by the compound given as ratio of UN value in treated to vehicle treated ones after intraperitoneal administration of 1 mg/kg of compound to rats(vehicle 120.9+/-23.3); assay type: functional; settings: ip
Rattus norvegicus [17] = assay: Ratio of urinary excretion value (Na+ concentration) in treated rats to that in control rats, at a peroral dose of 1.6 mg/Kg; assay type: functional, Urine
Adenosine A2 receptor [18] = molecular target: T1, Adenosine A2 receptor; remark: listed apart in the source
Description: Binding affinity towards adenosine A2 receptor in rat striatal membranes using N-[3H]-ethyladenosin-5''-uronamide as radioligand

Adenosine receptor A1 = molecular target: T2, Adenosine receptor A1 (Cavia porcellus, UniProt P47745)
T2 sequence (P47745 whole entry): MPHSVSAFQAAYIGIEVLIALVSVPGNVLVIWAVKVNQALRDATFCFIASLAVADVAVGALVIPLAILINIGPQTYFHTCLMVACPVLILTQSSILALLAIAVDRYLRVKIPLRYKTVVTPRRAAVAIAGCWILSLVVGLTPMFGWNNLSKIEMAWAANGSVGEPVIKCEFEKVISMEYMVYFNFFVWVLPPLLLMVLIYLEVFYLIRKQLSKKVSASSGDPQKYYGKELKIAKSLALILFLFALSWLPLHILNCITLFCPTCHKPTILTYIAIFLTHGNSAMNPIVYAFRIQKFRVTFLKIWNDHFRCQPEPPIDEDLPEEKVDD
Description: Binding affinity against adenosine A1 receptor in guinea pig forebrain membranes using N6-[3H]cyclohexyladenosine as radioligand

Rattus norvegicus [19] = assay: Percent inhibition of serum creatinine by the compound given as ratio of Cr value in treated to vehicle treated ones after intraperitoneal administration of 10 mg/kg of compound to rats(vehicle 4.98+/-0.08); assay type: functional; settings: ip
Rattus norvegicus [20] = assay: Percent inhibition of Urea nitrogen by the compound given as ratio of UN value in treated to vehicle treated ones after intraperitoneal administration of 10 mg/kg of compound to rats(vehicle 150.7+/-3.4); assay type: functional; settings: ip
Rattus norvegicus [21] = assay: Ratio of urinary excretion value (Na+ concentration) in treated rats to that in control rats, at a peroral dose of 6.25 mg/Kg; assay type: functional, Urine
Rattus norvegicus [22] = assay: Oral diuretic activity was measured after oral administration of 25 mg/kg to rats(control volume is 0.89+/-0.06); assay type: functional, Urine
Rattus norvegicus [23] = assay: Serum creatinine concentration measured after intraperitoneal administration of 10 mg/kg of compound to rats(vehicle 4.98+/-0.08); assay type: functional
Rattus norvegicus [24] = assay: Effect on urinary excretion potassium and sodium after oral administration of 25 mg/kg to rats(potassium and sodium excretion in control rat is […]+/-[…]); assay type: functional, Urine
Rattus norvegicus [25] = assay: Urea nitrogen concentration measured after intraperitoneal administration of 10 mg/kg of compound to rats(vehicle 150.7+/-3.4); assay type: functional
Rattus norvegicus [26] = assay: Ratio of urinary excretion value (urinary volume) in treated rats to that in control rats, at a peroral dose of 6.25 mg/Kg; assay type: functional, Urine

CCCn1c(=O)c2nc(C3C(C)(C)CCC3(C)C)[nH]c2n(CCC)c1=O
T/C (Rattus norvegicus [1]): 1.42
Na+/K+ (Rattus norvegicus [2]): 1.12
Urine volume (Rattus norvegicus [3]): 1.5 ml 6hr-1 100g-1
Cr (Rattus norvegicus [4]): 1.43 mg/dL
Ki (Adenosine A2 receptor [5]): > 100000 nM
inhibition in vivo at 1 mg/kg (Rattus norvegicus [6]): 1%
Na (Rattus norvegicus [7]): 0.172 m equiv 6hr-1 100g-1
Na (Rattus norvegicus [8]): 0.213 m equiv 6hr-1 100g-1
Cr (Rattus norvegicus [9]): 3.03 mg/dL
Na+/K+ (Rattus norvegicus [10]): 1.21
T/C (Rattus norvegicus [11]): 1.18
T/C (Rattus norvegicus [12]): 1.4
Urine volume (Rattus norvegicus [13]): 1.34 ml 6hr-1 100g-1
inhibition in vivo at 10 mg/kg (Rattus norvegicus [14]): 33%
UN (Rattus norvegicus [15]): 113.4 mg/dL
inhibition in vivo at 1 mg/kg (Rattus norvegicus [16]): 6%
T/C (Rattus norvegicus [17]): 1.23

Nc1nc2ccc(Cl)cc2c2nc(-c3ccco3)nn12 [CGS-15943]
Ki (Adenosine A2 receptor [18]): 3.3 nM
Ki (Adenosine A2 receptor [5]): 0.73 nM
Na+/K+ (Rattus norvegicus [10]): 1.07
T/C (Rattus norvegicus [11]): 1.46
T/C (Rattus norvegicus [12]): 1.02

CCCn1c(=O)c2[nH]c(CC3CCCCC3)nc2n(CCC)c1=O
Ki (Adenosine receptor A1): 11 nM

CCCn1c(=O)c2c(nc(C(C3CC3)C3CC3)n2CC)n(CCC)c1=O
inhibition in vivo at 10 mg/kg (Rattus norvegicus [19]): 10%
inhibition in vivo at 10 mg/kg (Rattus norvegicus [20]): 5%
T/C (Rattus norvegicus [21]): 1.24
Ki (Adenosine A2 receptor [5]): 14000 nM
Urine volume (Rattus norvegicus [22]): 2.15 ml 6hr-1 100g-1
Cr (Rattus norvegicus [23]): 4.5 mg/dL
Na+/K+ (Rattus norvegicus [10]): 1.51
T/C (Rattus norvegicus [11]): 2.14
T/C (Rattus norvegicus [12]): 2.42
Na (Rattus norvegicus [24]): 0.348 m equiv 6hr-1 100g-1
UN (Rattus norvegicus [25]): 142.7 mg/dL
T/C (Rattus norvegicus [26]): 1.19
